Source: PMC12596933 (Chembiochem, 2025)

Columns and labels:
FUT8 = details: read-out: Km as donor for FUT8; cited from earlier work
FUT6 = details: read-out: Km as donor for FUT6; cited from earlier work
HL-60 cells = test: Cell surface fucosylation, flow cytometry with lectin AAL staining; format: cell-based; details: 4 to 500 μM, 3 days, normalized to DMSO as 100%
[1] = biological target: T1, FKP (bacterial L-fucokinase/GDP-fucose pyrophosphorylase) (Bacteroides fragilis, UniProt Q58T34); test: Enzymatic conversion by FKP into the sugar nucleotide; format: biochemical
T1 sequence (Q58T34 1-949): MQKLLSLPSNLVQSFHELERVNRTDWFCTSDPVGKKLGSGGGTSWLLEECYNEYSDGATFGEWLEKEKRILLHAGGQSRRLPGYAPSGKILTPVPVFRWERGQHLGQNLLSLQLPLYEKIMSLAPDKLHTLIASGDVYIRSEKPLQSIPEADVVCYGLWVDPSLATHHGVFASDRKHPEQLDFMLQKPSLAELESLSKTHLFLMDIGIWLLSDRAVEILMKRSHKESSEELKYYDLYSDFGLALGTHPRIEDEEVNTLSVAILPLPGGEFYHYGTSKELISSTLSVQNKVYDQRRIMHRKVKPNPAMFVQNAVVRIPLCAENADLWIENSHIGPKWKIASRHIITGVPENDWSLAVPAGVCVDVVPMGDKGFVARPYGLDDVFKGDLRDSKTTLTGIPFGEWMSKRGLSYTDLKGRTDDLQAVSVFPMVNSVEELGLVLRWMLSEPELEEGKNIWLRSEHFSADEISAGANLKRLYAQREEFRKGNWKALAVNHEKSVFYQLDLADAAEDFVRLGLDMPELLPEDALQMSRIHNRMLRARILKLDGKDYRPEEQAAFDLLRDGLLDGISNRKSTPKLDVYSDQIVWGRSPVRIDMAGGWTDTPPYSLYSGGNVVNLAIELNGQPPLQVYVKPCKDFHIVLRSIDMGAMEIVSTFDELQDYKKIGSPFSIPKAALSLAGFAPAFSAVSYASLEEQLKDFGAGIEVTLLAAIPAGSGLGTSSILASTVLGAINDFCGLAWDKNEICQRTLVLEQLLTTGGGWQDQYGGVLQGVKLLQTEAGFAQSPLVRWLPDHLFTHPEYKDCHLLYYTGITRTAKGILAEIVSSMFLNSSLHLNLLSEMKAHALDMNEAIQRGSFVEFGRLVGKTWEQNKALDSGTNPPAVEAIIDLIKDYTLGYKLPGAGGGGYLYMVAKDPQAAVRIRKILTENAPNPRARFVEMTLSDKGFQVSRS

## Nc1nc2c(ncn2C2OC(COP(=O)(O)OP(=O)(O)OC3OC(CNC(=O)Cc4ccc5ccccc5c4)C(O)C(O)C3O)C(O)C2O)c(=O)[nH]1 (stereo not shown) [6‐deoxy‐6‐N‐(2‐naphthylacetyl)‐GDP‐fucose]
FUT8
  Km: 175 µM
FUT6
  Km: 940 nM

## CC(=O)O[C@@H]1O[C@@H](C)[C@@H](OC(C)=O)[C@@H](OC(C)=O)[C@@H]1OC(C)=O [Ac‐fucose]
HL-60 cells
  effect on cell surface fucosylation: enhanced fucosylation

## [N-]=[N+]=NC[C@@H]1OC(O)[C@@H](F)[C@H](O)[C@@H]1O (stereo partly shown) [6‐N3‐2‐F‐Fuc]
[1]
  conversion by FKP into the corresponding sugar nucleotide product: unable to catalyze the conversion
